{"source": "ChEMBL document CHEMBL5634144", "about": "“Design, synthesis and biological evaluation of novel DCLK1 inhibitor containing purine skeleton for the treatment of pancreatic cancer” (Eur J Med Chem, 2023)", "key": {"SW1990 [1]": {"test_system": "SW1990", "assay": "Induction of cell cycle arrest at S phase in human SW1990 cells at 10 uM incubated for 6 days by PI staining based flow cytometry (reference value: 21.20 %)", "assay_type": "functional", "conditions": "time 6 day"}, "SW1990 [2]": {"test_system": "SW1990", "assay": "Induction of cell cycle arrest at G0/G1 phase in human SW1990 cells at 10 uM incubated for 6 days by PI staining based flow cytometry (reference value: 49.65 %)", "assay_type": "functional", "conditions": "time 6 day"}, "SW1990 [3]": {"test_system": "SW1990", "assay": "Induction of apoptosis in human SW1990 cells assessed as viable cells at 10 uM incubated for 6 days by Annexin V/PI staining based flow cytometry (reference value: 92.93 %)", "assay_type": "functional", "conditions": "SW1990, 144 h, time 6 day, read-out: Activity"}, "[4]": {"molecular_target": "T1, Serine/threonine-protein kinase DCLK1 (Homo sapiens, UniProt O15075)", "T1 sequence (O15075 whole entry)": "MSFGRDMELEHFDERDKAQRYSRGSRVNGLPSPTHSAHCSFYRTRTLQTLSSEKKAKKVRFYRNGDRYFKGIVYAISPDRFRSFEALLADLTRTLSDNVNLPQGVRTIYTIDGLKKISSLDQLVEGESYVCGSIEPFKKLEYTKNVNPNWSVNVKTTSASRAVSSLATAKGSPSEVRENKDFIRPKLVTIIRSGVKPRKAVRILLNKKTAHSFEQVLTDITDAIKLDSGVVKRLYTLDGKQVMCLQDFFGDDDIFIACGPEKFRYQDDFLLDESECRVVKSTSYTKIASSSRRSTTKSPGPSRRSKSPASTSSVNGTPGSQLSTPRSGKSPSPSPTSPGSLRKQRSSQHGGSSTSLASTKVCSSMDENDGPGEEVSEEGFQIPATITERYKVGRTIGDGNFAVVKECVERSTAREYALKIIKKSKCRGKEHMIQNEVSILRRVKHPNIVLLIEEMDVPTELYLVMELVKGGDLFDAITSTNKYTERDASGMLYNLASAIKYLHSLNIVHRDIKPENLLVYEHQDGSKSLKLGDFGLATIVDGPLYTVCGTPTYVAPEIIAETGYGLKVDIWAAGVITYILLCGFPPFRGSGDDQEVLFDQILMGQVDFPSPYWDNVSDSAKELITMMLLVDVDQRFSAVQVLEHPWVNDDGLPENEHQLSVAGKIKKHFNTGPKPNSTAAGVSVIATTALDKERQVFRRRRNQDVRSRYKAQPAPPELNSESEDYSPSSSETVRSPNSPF", "assay": "Inhibition of DCLK1 (unknown origin) preincubated for 10 mins followed by substrate/ATP addition measured after 60 mins by mobility shift assay"}, "SW1990 [5]": {"test_system": "SW1990", "assay": "Antitumor activity against human SW1990 cells xenografted in BALB/c nude mouse model assessed as tumor growth inhibition at 60 mg/kg, ip for 21 days consecutively relative to control", "assay_type": "functional", "conditions": "SW1990, 504 h, time 21 day, read-out: TGI"}, "SW1990 [6]": {"test_system": "SW1990", "assay": "Inhibition of cell invasion in human SW1990 cells at 10 uM by transwell assay", "assay_type": "functional, cell-based"}, "SW1990 [7]": {"test_system": "SW1990", "assay": "Induction of apoptosis in human SW1990 cells assessed as early apoptotic cells at 10 uM incubated for 6 days by Annexin V/PI staining based flow cytometry (reference value: 4.55 %)", "assay_type": "functional", "conditions": "time 6 day"}, "HCT-116": {"test_system": "HCT-116", "assay": "Antiproliferative activity against human HCT-116 cells assessed as inhibition cell proliferation incubated for 6 days by MTT assay", "assay_type": "functional, cell-based", "conditions": "HCT-116, 144 h"}, "SW1990 [8]": {"test_system": "SW1990", "assay": "Antiproliferative activity against human SW1990 cells assessed as inhibition cell proliferation incubated for 6 days by MTT assay", "assay_type": "functional, cell-based", "conditions": "SW1990, 144 h"}, "SW1990 [9]": {"test_system": "SW1990", "assay": "Inhibition of cell migration in human SW1990 cells at 10 uM by transwell assay", "assay_type": "functional, cell-based"}, "SW1990 [10]": {"test_system": "SW1990", "assay": "Induction of apoptosis in human SW1990 cells assessed as necrotic cells at 10 uM incubated for 6 days by Annexin V/PI staining based flow cytometry (reference value: 0.50 %)", "assay_type": "functional", "conditions": "time 6 day"}, "CAKI-1": {"test_system": "CAKI-1", "assay": "Antiproliferative activity against human CAKI-1 cells assessed as inhibition cell proliferation incubated for 6 days by MTT assay", "assay_type": "functional, cell-based", "conditions": "CAKI-1, 144 h"}, "SW1990 [11]": {"test_system": "SW1990", "assay": "Induction of apoptosis in human SW1990 cells assessed as late apoptotic cells at 10 uM incubated for 6 days by Annexin V/PI staining based flow cytometry (reference value: 2.01 %)", "assay_type": "functional", "conditions": "time 6 day"}, "SW1990 [12]": {"test_system": "SW1990", "assay": "Induction of cell cycle arrest at G2/M phase in human SW1990 cells at 10 uM incubated for 6 days by PI staining based flow cytometry (reference value: 29.15 %)", "assay_type": "functional", "conditions": "time 6 day"}, "[13]": {"molecular_target": "T1, Serine/threonine-protein kinase DCLK1", "assay": "Inhibition of DCLK1 (unknown origin) in presence of 33P-ATP"}}, "note": "Calls of active or inactive are those of the source. The calls are words filed in the database; no cut-off is given here.", "data": [{"compound": "COc1cc(N2CCN(C)CC2)ccc1Nc1ncc2c(n1)N(C)c1ccccc1C(=O)N2CC(F)(F)F", "values": [{"measurement": "Activity", "setting": "SW1990 [1]", "result": 16.89, "unit": "%"}, {"measurement": "Activity", "setting": "SW1990 [2]", "result": 61.36, "unit": "%"}, {"measurement": "viability at 10 µM", "setting": "SW1990 [3]", "result": 60.6, "unit": "%"}, {"measurement": "IC50", "setting": "[4]", "result": 0.0379, "unit": "µM"}, {"measurement": "inhibition in vivo at 60 mg/kg", "setting": "SW1990 [5]", "result": 24.8, "unit": "%"}, {"measurement": "inhibition", "setting": "SW1990 [6]", "result": "Active"}, {"measurement": "Activity", "setting": "SW1990 [7]", "result": 18.23, "unit": "%"}, {"measurement": "IC50", "setting": "HCT-116", "result": 6.2, "unit": "µM"}, {"measurement": "IC50", "setting": "SW1990 [8]", "result": 14, "unit": "µM"}, {"measurement": "inhibition", "setting": "SW1990 [9]", "result": "Active"}, {"measurement": "Activity", "setting": "SW1990 [10]", "result": 8.99, "unit": "%"}, {"measurement": "IC50", "setting": "CAKI-1", "result": 12.2, "unit": "µM"}, {"measurement": "Activity", "setting": "SW1990 [11]", "result": 12.13, "unit": "%"}, {"measurement": "Activity", "setting": "SW1990 [12]", "result": 21.75, "unit": "%"}, {"measurement": "IC50", "setting": "[13]", "result": 0.0572, "unit": "µM"}]}]}
